Structures can show the parent of a compound that is named as a salt. Active and inactive are the calls of the source.
Columns and labels:
Cysteine protease ATG4B = target: T1, Cysteine protease ATG4B (Homo sapiens, UniProt Q9Y4P1); assay type: functional;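 note: Fluorescence-based dose-response confirmation assay measuring inhibition of ATG4B activity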
T1 sequence (Q9Y4P1 whole entry): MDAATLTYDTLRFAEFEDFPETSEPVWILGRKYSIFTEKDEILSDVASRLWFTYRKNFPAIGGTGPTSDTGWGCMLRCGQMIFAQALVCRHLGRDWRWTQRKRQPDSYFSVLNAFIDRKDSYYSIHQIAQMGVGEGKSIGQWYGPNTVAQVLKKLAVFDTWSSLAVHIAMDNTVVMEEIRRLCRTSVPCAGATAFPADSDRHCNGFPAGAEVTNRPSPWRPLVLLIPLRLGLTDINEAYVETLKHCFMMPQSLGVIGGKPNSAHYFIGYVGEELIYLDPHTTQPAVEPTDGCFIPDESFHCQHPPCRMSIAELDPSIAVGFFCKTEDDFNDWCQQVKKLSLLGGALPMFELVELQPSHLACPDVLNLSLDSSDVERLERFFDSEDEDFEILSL

Phospholipase A2 = Phospholipase A2 (Homo sapiens, UniProt P04054); assay type: functional;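 note: confirmatory dose-response counterscreen on phospholipase A2, testing hits that came from an ultra-high-throughput screen for ATG4B inhibitors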
Sequence of Phospholipase A2 (P04054 whole entry): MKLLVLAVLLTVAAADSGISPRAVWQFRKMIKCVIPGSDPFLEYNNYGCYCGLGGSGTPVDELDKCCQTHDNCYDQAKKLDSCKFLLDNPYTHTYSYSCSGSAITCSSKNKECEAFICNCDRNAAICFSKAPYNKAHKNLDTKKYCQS

Melanocortin receptor 4 = Melanocortin receptor 4 (Homo sapiens, UniProt P32245); assay: inhibitors of MC4R cAMP signaling – cell-based, TR-FRET, biased antagonists, dose response (AID 602298); assay type: functional;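 note: antagonist potency against agonist-stimulated cAMP production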
Sequence of Melanocortin receptor 4 (P32245 whole entry): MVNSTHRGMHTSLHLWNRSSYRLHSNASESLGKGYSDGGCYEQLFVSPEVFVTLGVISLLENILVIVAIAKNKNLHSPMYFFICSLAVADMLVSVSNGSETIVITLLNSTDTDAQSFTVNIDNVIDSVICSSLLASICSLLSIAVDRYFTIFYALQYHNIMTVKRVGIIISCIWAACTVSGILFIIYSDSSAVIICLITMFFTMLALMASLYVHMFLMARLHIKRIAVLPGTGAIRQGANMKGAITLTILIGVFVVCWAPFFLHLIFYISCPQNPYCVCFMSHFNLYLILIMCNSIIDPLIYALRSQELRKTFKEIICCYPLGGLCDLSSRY

[1] = cAMP pathway inhibition in counterscreen cell line – TR-FRET cAMP detection, counter-screen for MC4R biased antagonist project, dose response (AID 602305); assay type: functional, cell-based;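 note: U2OS cells stimulated with forskolin near its EC80 as the cAMP inducer; potency is for inhibition of forskolin-stimulated cAMP signaling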
Cytochrome P450 3A4 [2] = target: T2, Cytochrome P450 3A4 (Homo sapiens, UniProt P08684);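 note: CYP3A4 tested as one member of a cytochrome P450 panel screen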
T2 sequence (P08684 whole entry): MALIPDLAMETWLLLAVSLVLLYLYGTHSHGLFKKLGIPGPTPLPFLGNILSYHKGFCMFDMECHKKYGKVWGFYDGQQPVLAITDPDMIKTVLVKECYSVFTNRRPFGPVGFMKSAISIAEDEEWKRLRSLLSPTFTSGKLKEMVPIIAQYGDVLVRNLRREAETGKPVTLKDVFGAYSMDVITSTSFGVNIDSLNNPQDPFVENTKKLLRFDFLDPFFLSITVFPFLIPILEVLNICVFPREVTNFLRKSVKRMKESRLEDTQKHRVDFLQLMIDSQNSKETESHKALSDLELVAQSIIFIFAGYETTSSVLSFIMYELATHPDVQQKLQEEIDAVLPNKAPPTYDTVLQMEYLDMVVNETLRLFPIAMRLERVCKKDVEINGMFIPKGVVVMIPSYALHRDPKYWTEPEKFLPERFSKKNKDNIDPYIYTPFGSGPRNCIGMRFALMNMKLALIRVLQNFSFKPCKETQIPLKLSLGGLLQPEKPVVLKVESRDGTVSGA

Troponin, cardiac muscle = Troponin, cardiac muscle (Homo sapiens, UniProt P19429+P45379+P63316); assay: Fluorescence-based biochemical high throughput dose response assay for activators of the calcium sensitivity of cardiac Regulated Thin Filaments (RTF). [Related pubchem assays (depositor defined):AID493008, AID493018, AID504382, AID504383]; assay type: protein-complex assay
[3] = Trypanosoma cruzi growth suppression in host cells – NIH3T3 host cells, beta-gal luminescence, confirmation (AID 2044); assay type: functional, cell-based;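 note: intracellular parasites grown in NIH/3T3 mouse fibroblasts as host cells; luminescent beta-galactosidase reporter signal from transgenic T. cruzi replicating inside host cells; inhibitors lower the luminescence signal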
[4] = NIH3T3 cell viability loss – ATP luminescence, mouse fibroblasts, counter-screen, dose response (AID 2010); assay type: functional, cell-based;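 note: cells exposed to compound for about 90 hours before reading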
[5] = target: Glucose-6-phosphate 1-dehydrogenase (Homo sapiens, UniProt P11413); assay: inhibition of Homo sapiens G6PD, dose series – biochemical, fluorescence, selectivity assay for P. falciparum G6PD inhibitor project, dose response (AID 504792); assay type: functional
Sequence of Glucose-6-phosphate 1-dehydrogenase (P11413 whole entry): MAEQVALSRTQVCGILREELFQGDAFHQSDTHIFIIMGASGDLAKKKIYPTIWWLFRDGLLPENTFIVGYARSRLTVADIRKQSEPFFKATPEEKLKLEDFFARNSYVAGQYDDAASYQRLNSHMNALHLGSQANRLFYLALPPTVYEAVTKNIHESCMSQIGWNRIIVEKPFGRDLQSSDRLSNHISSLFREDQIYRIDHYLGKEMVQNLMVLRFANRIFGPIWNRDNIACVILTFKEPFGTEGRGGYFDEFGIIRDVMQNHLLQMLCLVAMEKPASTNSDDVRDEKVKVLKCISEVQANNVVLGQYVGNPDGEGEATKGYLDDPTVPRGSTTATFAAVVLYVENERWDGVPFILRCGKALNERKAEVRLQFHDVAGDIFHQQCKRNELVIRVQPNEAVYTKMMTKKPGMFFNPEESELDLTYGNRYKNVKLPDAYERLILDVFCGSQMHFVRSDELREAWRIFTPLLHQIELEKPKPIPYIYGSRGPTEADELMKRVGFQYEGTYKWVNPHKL

Cytochrome P450 3A4 [6] = target: T2, Cytochrome P450 3A4; remark: listed apart in the source
[7] = target: Voltage-gated inwardly rectifying potassium channel KCNH2 (Homo sapiens, UniProt Q12809); details: Potency;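 note: confirmatory quantitative high-throughput screen measuring inhibition of hERG channel activity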
Sequence of Voltage-gated inwardly rectifying potassium channel KCNH2 (Q12809 whole entry): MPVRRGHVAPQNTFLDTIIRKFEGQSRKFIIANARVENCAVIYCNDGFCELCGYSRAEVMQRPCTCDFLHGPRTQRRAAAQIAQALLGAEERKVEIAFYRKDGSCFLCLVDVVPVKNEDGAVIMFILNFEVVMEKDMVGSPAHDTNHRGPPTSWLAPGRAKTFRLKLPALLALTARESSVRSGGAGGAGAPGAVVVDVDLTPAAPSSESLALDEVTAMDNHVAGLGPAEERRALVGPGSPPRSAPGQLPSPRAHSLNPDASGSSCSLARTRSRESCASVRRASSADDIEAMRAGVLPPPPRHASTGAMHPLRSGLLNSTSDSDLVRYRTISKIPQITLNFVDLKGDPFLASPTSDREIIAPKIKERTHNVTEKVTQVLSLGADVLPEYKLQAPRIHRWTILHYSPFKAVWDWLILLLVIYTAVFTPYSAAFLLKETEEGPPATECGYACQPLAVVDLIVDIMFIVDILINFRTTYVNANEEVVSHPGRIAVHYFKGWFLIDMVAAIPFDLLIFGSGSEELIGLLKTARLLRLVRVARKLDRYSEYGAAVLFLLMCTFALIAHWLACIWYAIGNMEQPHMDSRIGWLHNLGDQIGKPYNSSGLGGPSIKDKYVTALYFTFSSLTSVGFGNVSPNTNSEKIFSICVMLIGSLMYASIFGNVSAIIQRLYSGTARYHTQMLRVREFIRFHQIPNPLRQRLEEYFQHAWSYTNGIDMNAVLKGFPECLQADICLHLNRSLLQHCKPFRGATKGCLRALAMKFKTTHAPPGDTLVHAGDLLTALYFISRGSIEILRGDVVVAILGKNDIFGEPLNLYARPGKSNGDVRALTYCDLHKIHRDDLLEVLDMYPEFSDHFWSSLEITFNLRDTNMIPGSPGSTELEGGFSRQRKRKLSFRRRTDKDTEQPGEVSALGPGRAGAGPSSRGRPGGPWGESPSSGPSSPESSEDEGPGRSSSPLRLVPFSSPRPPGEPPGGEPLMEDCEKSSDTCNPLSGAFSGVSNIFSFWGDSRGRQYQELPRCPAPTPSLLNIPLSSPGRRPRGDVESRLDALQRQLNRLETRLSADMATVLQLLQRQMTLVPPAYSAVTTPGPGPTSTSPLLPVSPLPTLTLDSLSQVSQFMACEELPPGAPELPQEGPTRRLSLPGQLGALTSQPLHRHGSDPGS

cells [8] = assay type: functional, cell-based
[9] = target: G-protein coupled receptor 55 (Homo sapiens, UniProt Q9Y2T6); assay: inhibition of LPI-stimulated GPR55 beta-arrestin translocation – imaging, U2OS, beta-arrestin-GFP, LPI agonist, primary screen (AID 2013); assay type: functional;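 note: antagonist potency measured as reduced agonist-driven arrestin aggregation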
Sequence of G-protein coupled receptor 55 (Q9Y2T6 whole entry): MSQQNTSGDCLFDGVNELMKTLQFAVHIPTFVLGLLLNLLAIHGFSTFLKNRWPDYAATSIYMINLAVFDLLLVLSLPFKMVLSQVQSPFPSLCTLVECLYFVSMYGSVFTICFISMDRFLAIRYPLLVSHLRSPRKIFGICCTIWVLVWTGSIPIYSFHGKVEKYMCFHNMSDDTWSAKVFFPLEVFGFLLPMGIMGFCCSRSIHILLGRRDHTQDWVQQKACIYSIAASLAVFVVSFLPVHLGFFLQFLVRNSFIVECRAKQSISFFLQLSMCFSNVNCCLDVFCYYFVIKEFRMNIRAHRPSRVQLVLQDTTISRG

cells [10] = assay type: functional, cell-based; remark: listed apart in the source
[11] = THP-1 cell cytotoxicity, dose response, cytotoxicity control for non-replicating M. tuberculosis project (AID 489025); assay type: functional
Vero = assay: cells; assay type: functional; details: Chlorocebus sabaeus
[12] = Luminescence Cell-Based Dose Retest to Confirm Inhibitors of Cancer Stem Cells. [Related pubchem assays (depositor defined):AID2717, AID2721]; assay type: functional; details: Homo sapiens
[13] = NIH-3T3 fibroblast cytotoxicity, dose response, cytotoxicity control, cell-based, fluorescence, Alamar Blue, secondary assay (AID 2327); assay type: functional;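 note: NIH-3T3 mouse fibroblasts cultured with fluconazole at 8 µg/mL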
[14] = fluconazole-exposed Candida albicans growth modulators – fluorescence, retest, confirmation (AID 2467); assay type: functional, cell-based
[15] = target: Beta-2 adrenergic receptor (Homo sapiens, UniProt P07550); assay: ADRB2 activation measured by internalization – cell-based, FAP fluorogen, flow cytometry, cherry pick 1, dose response (AID 588763); assay type: functional
Sequence of Beta-2 adrenergic receptor (P07550 whole entry): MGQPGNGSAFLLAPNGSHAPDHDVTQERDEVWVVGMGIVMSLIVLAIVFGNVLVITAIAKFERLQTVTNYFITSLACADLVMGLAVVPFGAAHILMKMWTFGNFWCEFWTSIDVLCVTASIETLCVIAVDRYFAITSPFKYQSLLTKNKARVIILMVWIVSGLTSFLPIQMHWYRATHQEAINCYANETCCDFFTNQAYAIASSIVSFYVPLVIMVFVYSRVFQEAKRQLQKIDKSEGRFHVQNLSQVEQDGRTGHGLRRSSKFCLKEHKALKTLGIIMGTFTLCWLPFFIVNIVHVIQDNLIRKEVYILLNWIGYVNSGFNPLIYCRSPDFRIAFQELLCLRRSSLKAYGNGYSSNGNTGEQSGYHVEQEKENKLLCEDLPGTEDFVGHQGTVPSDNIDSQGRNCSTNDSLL

SUMO-activating enzyme = SUMO-activating enzyme (Homo sapiens, UniProt Q9UBT2); assay: blockers of UBC9-mediated SUMO conjugation – biochemical, AlphaScreen, SUMOylation inhibitor project, confirmation (AID 2018); assay type: functional
Sequence of SUMO-activating enzyme (Q9UBE0 whole entry): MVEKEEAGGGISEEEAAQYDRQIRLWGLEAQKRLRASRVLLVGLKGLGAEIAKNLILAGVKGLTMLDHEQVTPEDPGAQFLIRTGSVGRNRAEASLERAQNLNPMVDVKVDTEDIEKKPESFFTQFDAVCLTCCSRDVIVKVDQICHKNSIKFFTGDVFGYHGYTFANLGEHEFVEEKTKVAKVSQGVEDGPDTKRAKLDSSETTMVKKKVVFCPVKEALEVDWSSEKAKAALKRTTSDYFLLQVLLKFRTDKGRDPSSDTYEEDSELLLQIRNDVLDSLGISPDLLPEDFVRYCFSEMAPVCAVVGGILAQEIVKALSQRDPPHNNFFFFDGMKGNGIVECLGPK
Sequence of SUMO-activating enzyme (Q9UBT2 whole entry): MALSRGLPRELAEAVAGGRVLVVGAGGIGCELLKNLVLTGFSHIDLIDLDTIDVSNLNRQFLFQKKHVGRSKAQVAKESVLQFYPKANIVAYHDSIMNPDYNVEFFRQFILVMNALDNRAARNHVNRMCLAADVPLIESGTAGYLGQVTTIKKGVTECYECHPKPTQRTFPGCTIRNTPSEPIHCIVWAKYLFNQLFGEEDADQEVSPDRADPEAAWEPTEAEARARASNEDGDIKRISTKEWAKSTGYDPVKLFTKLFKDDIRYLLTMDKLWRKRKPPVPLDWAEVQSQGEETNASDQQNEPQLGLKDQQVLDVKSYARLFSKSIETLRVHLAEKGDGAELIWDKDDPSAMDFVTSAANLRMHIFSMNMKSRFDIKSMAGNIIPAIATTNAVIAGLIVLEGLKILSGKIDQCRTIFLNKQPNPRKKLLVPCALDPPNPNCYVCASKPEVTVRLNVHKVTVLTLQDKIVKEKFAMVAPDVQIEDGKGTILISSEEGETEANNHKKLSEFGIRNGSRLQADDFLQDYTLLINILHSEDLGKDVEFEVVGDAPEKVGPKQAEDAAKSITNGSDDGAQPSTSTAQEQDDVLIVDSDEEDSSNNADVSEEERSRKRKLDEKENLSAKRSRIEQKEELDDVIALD

[16] = target: DNA dC->dU-editing enzyme APOBEC-3A (Homo sapiens, UniProt P31941); assay: Dose Response confirmation of small molecule APOBEC3A DNA Deaminase Inhibitors via a fluorescence-based single-stranded DNA deaminase assay. [Related pubchem assays (depositor defined):AID493011, AID493024]; assay type: functional
Sequence of DNA dC->dU-editing enzyme APOBEC-3A (P31941 whole entry): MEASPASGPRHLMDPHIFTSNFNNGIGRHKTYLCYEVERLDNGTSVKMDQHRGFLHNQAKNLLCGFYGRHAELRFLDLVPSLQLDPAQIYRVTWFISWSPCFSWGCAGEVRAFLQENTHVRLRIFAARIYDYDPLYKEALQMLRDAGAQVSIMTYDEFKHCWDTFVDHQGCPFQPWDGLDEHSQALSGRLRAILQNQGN

[17] = target: DNA dC->dU-editing enzyme APOBEC-3G (Homo sapiens, UniProt Q9HC16); assay type: functional;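 note: Dose-response counterscreen measuring inhibition of APOBEC3G DNA deaminase activity, run while confirming APOBEC3A inhibitors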
Sequence of DNA dC->dU-editing enzyme APOBEC-3G (Q9HC16 whole entry): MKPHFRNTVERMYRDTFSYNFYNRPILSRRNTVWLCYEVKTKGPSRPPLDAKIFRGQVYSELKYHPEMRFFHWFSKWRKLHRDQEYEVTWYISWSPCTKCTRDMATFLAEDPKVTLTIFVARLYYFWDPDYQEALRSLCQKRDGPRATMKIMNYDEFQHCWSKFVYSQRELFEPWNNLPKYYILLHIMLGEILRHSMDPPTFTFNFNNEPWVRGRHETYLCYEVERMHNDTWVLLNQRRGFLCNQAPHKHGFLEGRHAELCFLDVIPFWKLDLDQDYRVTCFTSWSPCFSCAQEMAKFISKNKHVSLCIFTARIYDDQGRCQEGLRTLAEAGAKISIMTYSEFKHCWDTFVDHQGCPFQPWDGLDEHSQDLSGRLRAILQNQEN

[18] = Luminescence Cell-Based Dose Confirmation HTS to Identify Activators of 5'UTR Stem-Loop Driven Alpha-Synuclein mRNA Translation in H4 Neuroglioblastoma Cells. [Related pubchem assays: 1829 (Project Summary), 1814 (Primary HTS)]; assay type: functional
[19] = Luminescence Cell-Based Dose Response HTS to Identify Activators of Luciferase Translation or Activity in H4 […] Cells. [Related pubchem assays: 1829 (Project Summary), 1814 (Primary HTS)]; assay type: functional
H4 = assay: Luminescence Cell-Based Dose Response HTS to Identify Activators of 5'UTR Stem-Loop Driven Prion Protein mRNA Translation in H4 Neuroglioblastoma Cells. [Related pubchem assays: 1829 (Project Summary), 1814 (Primary HTS)]; assay type: functional; details: Homo sapiens
Beta-galactosidase = Beta-galactosidase (Escherichia coli, UniProt Q8VNN2); assay: PubChem AID 485352; assay type: functional
[20] = target: T3, Type-1 angiotensin II receptor (Homo sapiens, UniProt P30556); assay: antagonism of angiotensin II type 1 receptor – cell-based, uHTS hits, selectivity assay for APJ receptor antagonist project, dose response (AID 463214); assay type: functional;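 note: antagonist potency against angiotensin II stimulated AT1 response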
T3 sequence (P30556 whole entry): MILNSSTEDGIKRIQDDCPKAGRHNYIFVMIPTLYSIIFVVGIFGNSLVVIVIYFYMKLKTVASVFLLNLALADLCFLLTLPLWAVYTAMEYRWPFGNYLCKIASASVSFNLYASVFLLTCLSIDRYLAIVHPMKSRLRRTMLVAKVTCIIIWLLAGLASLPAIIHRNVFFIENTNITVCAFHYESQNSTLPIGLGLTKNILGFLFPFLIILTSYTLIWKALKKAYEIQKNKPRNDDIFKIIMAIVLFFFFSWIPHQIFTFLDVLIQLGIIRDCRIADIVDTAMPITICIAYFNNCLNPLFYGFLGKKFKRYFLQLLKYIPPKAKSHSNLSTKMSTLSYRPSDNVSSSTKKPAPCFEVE

HEK293 [21] = assay: cells; details: Homo sapiens
HEK293 [22] = assay: cells; details: Homo sapiens; remark: listed apart in the source
[23] = target: T4, High affinity choline transporter 1 (Homo sapiens, UniProt Q9GZV3); assay: human choline transporter blockers, potency – cell-based, 5-point CRC, membrane potential dye, dose response (AID 504840); assay type: functional
T4 sequence (Q9GZV3 whole entry): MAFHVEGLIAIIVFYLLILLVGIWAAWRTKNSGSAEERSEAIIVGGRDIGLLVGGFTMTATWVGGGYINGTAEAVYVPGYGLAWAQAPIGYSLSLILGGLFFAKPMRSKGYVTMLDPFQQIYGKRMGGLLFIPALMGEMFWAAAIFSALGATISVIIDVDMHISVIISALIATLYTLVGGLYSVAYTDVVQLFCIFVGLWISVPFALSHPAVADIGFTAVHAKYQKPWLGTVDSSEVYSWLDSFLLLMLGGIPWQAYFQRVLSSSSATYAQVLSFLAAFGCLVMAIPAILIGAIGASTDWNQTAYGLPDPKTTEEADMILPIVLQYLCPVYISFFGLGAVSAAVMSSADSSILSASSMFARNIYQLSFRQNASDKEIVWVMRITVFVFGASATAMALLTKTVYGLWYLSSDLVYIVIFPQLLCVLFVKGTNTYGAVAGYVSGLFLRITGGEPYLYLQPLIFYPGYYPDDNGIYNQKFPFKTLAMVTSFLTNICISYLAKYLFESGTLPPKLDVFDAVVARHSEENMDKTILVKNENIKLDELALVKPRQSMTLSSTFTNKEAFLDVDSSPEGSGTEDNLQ

H9c2 = assay: cells; assay type: functional, cell-based; details: Rattus norvegicus, H9c2, Myocardium;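 note: confirmatory concentration-response retest of ultra-high-throughput screening hits for modulation of myocardial damage; cell death induced by hydrogen peroxide oxidative stress; compound pretreatment for 60 min then peroxide exposure for 2 h; potency is for protecting the cells against peroxide damage rather than for killing them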

Nc1c(N2CCN(c3ccccc3)CC2)c2ccccc2oc1=O
IC50 (Cysteine protease ATG4B): 20.4 µM (inactive)
IC50 (Phospholipase A2): 12.9 µM (active)

COc1ccc(CC(=O)Oc2ccc(F)c(F)c2)cc1S(=O)(=O)N1CCOCC1
IC50 (Melanocortin receptor 4): > 64.6 µM (inactive)
IC50 [1]: > 64.6 µM (inactive)

O=C(c1cccc(F)c1)N1CCC2(CCN(Cc3cc(C(F)(F)F)cc(C(F)(F)F)c3)CC2)CC1
AC50 (Cytochrome P450 3A4 [2]): inconclusive

Cc1ccc(N2C(=O)NC(=O)/C(=C/C=C/Nc3ccccc3)C2=O)cc1
EC50 (Troponin, cardiac muscle): 5.48 µM (active)

CCOC(=O)c1cnc2ccc(C)cc2c1Sc1ccccc1C(=O)OC
EC50 [3]: 4.01 µM (active)
EC50 [4]: > 60 µM (not active)
IC50 [5]: > 80 µM (inactive)
AC50 (Cytochrome P450 3A4 [6]): 39.8 µM (inconclusive)

O=[N+]([O-])c1ccccc1-c1ccccc1
AC50 [7]: 39.8 µM (inconclusive)

c1ccc(Cc2nnc(-c3ccccc3)o2)cc1
EC50 (cells [8]): > 350 µM (not active)
IC50 [9]: 3.3 µM (active)
EC50 (cells [10]): 56.3 µM (active)
CC50 [11]: > 40 µM (active)
CC50 (Vero): 16.3 µM (active)

CN(C)CCNC(=O)COc1ccc(C23CC4CC(CC(C4)C2)C3)cc1
EC50 [3]: 1.83 µM (active)
EC50 [4]: > 60 µM (inconclusive)
AC50 [12]: 4.95 µM (active)
CC50 (Vero): 18.5 µM (active)

CCOC(=O)c1cnc(-c2ccccc2)nc1Oc1ccccc1
AC50 (Cytochrome P450 3A4 [2]): inconclusive

CCc1cc(-c2[nH]nc(C)c2-c2ccccc2Cl)c(O)cc1OC
EC50 [13]: 6.06 µM (inconclusive)
EC50 [14]: > 38 µM (not active)
IC50 [5]: > 80 µM (inactive)
AC50 [12]: 4.42 µM (active)

CCCCC(=O)Nc1ccc(C(=O)N(CC)c2ccccc2C)cc1
EC50 [15]: 17.5 µM (inactive)

O=C(c1ccc2c(c1)nc(S)n1c3ccccc3nc21)N1CCN(c2ncccn2)CC1
IC50 (SUMO-activating enzyme): 50.6 µM (active)

N#Cc1ccc(CN2CC3(CCN(C(=O)c4cccc(F)c4)CC3)C2)cc1
AC50 (Cytochrome P450 3A4 [2]): inconclusive

C[N+]1(CC(COCc2ccccc2)OC(=O)Cc2ccccc2)CCOCC1 (stereo not drawn)
IC50 [16]: 2.41 µM (active)
IC50 [17]: 2.42 µM (active)

O=C(/C=C/c1cccc(O)c1)c1ccc(N2CCOCC2)cc1
EC50 [18]: > 120 µM (not active)
EC50 [19]: 12.3 µM (active)
EC50 (H4): > 120 µM (not active)
CC50 (Vero): 12.7 µM (active)

CCN(CC)c1nc(C)c(C(S)=Nc2cc([N+](=O)[O-])ccc2Cl)s1
EC50 (Beta-galactosidase): 24.8 µM (active)
IC50 [20]: > 40 µM (not active)

CC1=C(C#N)C(c2cn(-c3ccccc3)nc2-c2cccs2)C(C#N)=C(C)N1
EC50 [15]: 0.327 µM (inactive)

CC1(C#CC[N+]2(C)CCCCC2)CCC2C(O1)c1ccccc1OC2(C)C (stereo not drawn)
IC50 [16]: 3.03 µM (active)
IC50 [17]: 5.07 µM (active)

COc1cc2c(cc1OC)-c1nnc(-c3cccs3)n1C(C)(C)C2
EC50 (HEK293 [21]): > 59.6 µM (inactive)
EC50 (HEK293 [22]): > 59.6 µM (inactive)

CCCCNC(=O)CSc1nc2ccc(NC(=O)CSc3nnc(N)s3)cc2s1
IC50 [16]: 3.61 µM (active)
IC50 [17]: 6.28 µM (active)

COc1ccccc1NS(=O)(=O)c1cc(NC(=O)c2cc3ccccc3oc2=O)ccc1C
EC50 (Troponin, cardiac muscle): > 71.5 µM (inactive)

O=C(C1=C(O)C(=O)N(CCN2CCOCC2)C1c1ccc([N+](=O)[O-])cc1)c1cccs1 (stereo not drawn)
EC50 (Troponin, cardiac muscle): > 71.4 µM (inactive)

Cc1nn(-c2ccccc2)c(Cl)c1/C=N/Nc1nc2ccccc2n1C
EC50 [3]: 1.94 µM (active)
EC50 [4]: > 60 µM (not active)
IC50 [5]: > 80 µM (inactive)

Cc1cccc(/N=C/c2cc(Br)cc(Cl)c2O)c1
IC50 (Cysteine protease ATG4B): 8.52 µM (active)
IC50 (Phospholipase A2): 12.1 µM (active)
IC50 [23]: 13.3 µM (active)
IC50 (H9c2): > 79 µM (inactive)

CNCC(O)c1ccc(OC(=O)C(C)(C)C)c(OC(=O)C(C)(C)C)c1 (stereo not drawn) [DIPIVEFRIN HYDROCHLORIDE]
EC50 [15]: 7.13 µM (active)

From ChEMBL document CHEMBL1201862, “PubChem BioAssay data set” (2004)
